In patent publication US9833497B2, “Human originated EGF domain proteins and use of the same” (CHENGDU SOURCEBIO LIMITED-LIABILITY COMPANY, priority 2013, dated 2017):

Legend:
E. coli DH5α = assay: Antibacterial activity: MIC and growth curve against E. coli DH5α in 96-well plate; type: cell-based
Outline: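 MIC taken as lowest protein level with no bacterial growth, tracked by A600 every 30 min during 37 °C, 175 rpm culture. Two-fold protein series 50-12.5 μg/mL final, triplicate wells, against 5×10^5 CFU/mL of LB-washed mid-log cells.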

E. coli BL21 = assay: MIC against Gram-negative bacteria: E. coli BL21; type: cell-based; details: E. coli BL21; 96-well plate, 5×10^5 CFU/mL, 37° C., 10 h
Outline: (§1)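 MIC = lowest concentration of recombinant protein showing no growth. Test proteins: purified human-derived EGF domain proteins, two-fold dilution series, three wells per concentration; inoculum 5×10^5 CFU/mL in LB; incubation 37° C with shaking at 175 rpm.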

Pseudomonas aeruginosa = assay: MIC against Gram-negative bacteria: Pseudomonas aeruginosa; type: cell-based; details: Pseudomonas aeruginosa; 96-well plate, 5×10^5 CFU/mL, 37° C., 10 h
Outline: as §1

Klebsiella pneumonia = assay: MIC against Gram-negative bacteria: Klebsiella pneumonia; type: cell-based; details: Klebsiella pneumonia; 96-well plate, 5×10^5 CFU/mL, 37° C., 10 h
Outline: as §1

Enterobacter cloacae = assay: MIC against Gram-negative bacteria: Enterobacter cloacae; type: cell-based; details: Enterobacter cloacae; 96-well plate, 5×10^5 CFU/mL, 37° C., 10 h
Outline: as §1

Aeromonas hydrophila = assay: MIC against Gram-negative bacteria: Aeromonas hydrophila; type: cell-based; details: Aeromonas hydrophila; 96-well plate, 5×10^5 CFU/mL, 37° C., 10 h
Outline: as §1

Citrobacter diversus = assay: MIC against Gram-negative bacteria: Citrobacter diversus; type: cell-based; details: Citrobacter diversus; 96-well plate, 5×10^5 CFU/mL, 37° C., 10 h
Outline: as §1

Moraxella catarrhalis = assay: MIC against Gram-negative bacteria: Moraxella catarrhalis; type: cell-based; details: Moraxella catarrhalis; 96-well plate, 5×10^5 CFU/mL, 37° C., 10 h
Outline: as §1

Proteus mirabilis = assay: MIC against Gram-negative bacteria: Proteus mirabilis; type: cell-based; details: Proteus mirabilis; 96-well plate, 5×10^5 CFU/mL, 37° C., 10 h
Outline: as §1

Proteus vulgaris = assay: MIC against Gram-negative bacteria: Proteus vulgaris; type: cell-based; details: Proteus vulgaris; 96-well plate, 5×10^5 CFU/mL, 37° C., 10 h
Outline: as §1

Serratia marcescens = assay: MIC against Gram-negative bacteria: Serratia marcescens; type: cell-based; details: Serratia marcescens; 96-well plate, 5×10^5 CFU/mL, 37° C., 10 h
Outline: as §1

[1] = Silver staining detection of endotoxin (LPS) hydrolysis; type: biochemical; details: E. coli EH100 LPS incubated overnight with protein, FIG. 28
Method: 1. The E. coli EH100 LPS (Sigma) samples were respectively incubated with the obtained human-originated EGF domain proteins (PRT1 to PRT1498 in Table 1) such as the recombination protein hF VII-EGF1, etc.; and the control group was the LPS sample incubated with TB S buffer. The incubation lasted overnight. Then, the centrifugation was performed to collect the pellet.
2. The 1×loading buffer for LPS (0.05 mol/L Tris-HCl, containing 10 g/L SDS, 100 g/L sucrose, 0.5% β-mercaptoethanol, 10 mg/L Bromophenol Blue, pH 6.8) was mixed with the sample of the treated pellet and incubated on a metal bath at 100° C. for 5 min.
3. 15% separating gel (containing 4 mol/L urea, Bio-Rad with a thickness of 1.0 mm, the detailed composition as follows: 1.15 mL of deionized water, 2.5 mL of 30% acrylamide, 1.3 mL of 1.5 mol/L Tris-HCl (pH 8.8, containing 10% SDS), 50 μl of 10% ammonium persulfate, 4 μl of TEMED) was mixed well and prepared. The top of the separating gel was overlaid with water.
4. 5% stacking gel was prepared as follows: 1.42 mL of deionized water, 0.33 mL of 30% acrylamide, 0.25 mL of 1 mol/L Tris-HCl (pH 6.8, containing 10% SDS), 20 μL of 10% ammonium persulfate, 2 μL of TEMED) were mixed well and poured. A ten-well comb was quickly inserted.
5. After the gel was prepared, the samples were loaded. Then, the gel was run at a voltage of 120 V to separate the samples. […]

hF VII-EGF1: human coagulation factor VII-EGF1 domain protein, molecular weight about 3.9 kD, recombinant, released from RFP fusion by rTEV (DGDQCASSPCQNGGSCKDQLQSYICFCLPAFEGRNCE; listed as Homo sapiens)
MIC (minimal inhibitory concentration) (E. coli DH5α; E. coli DH5α, 5×10^5 CFU/mL, after 8 h of cultivation at 37° C.): 12.5 µg/mL
inhibitory effect on the growth of E. coli DH5α (E. coli DH5α; growth curve (OD 600 nm), FIG. 27 / Table 2): significant inhibitory effect
MIC (E. coli DH5α; minimal inhibitory concentration against E. coli DH5α, 96-well plate, 5×10^5 CFU/mL, 37° C., judged after 8 h): 12.5 µg/mL
MIC (μg/mL) E. coli BL21 (E. coli BL21): 12.5 µg/mL
MIC (μg/mL) P. aeruginosa (Pseudomonas aeruginosa): 25 µg/mL
MIC (μg/mL) K. pneumonia (Klebsiella pneumonia): 25 µg/mL
MIC (μg/mL) E. cloacae (Enterobacter cloacae): 12.5 µg/mL
MIC (μg/mL) A. hydrophila (Aeromonas hydrophila): 12.5 µg/mL
MIC (μg/mL) C. diversus (Citrobacter diversus): 12.5 µg/mL
MIC (μg/mL) M. catarrhalis (Moraxella catarrhalis): 25 µg/mL
MIC (μg/mL) P. mirabilis (Proteus mirabilis): 25 µg/mL
MIC (μg/mL) P. vulgaris (Proteus vulgaris): 12.5 µg/mL
MIC (μg/mL) S. marcescens (Serratia marcescens): 12.5 µg/mL
hydrolysis of LPS (LPS band in silver staining) [1]: eliminates the majority of LPS
